Experiments:
[1] = test system: hospitalized patients with Covid-19; conditions: WHO Solidarity Trial; cited from earlier work
SARS CoV-2 = conditions: whole blood or plasma samples collected with the anticoagulant
[2] = test system: adults with mild COVID-19; conditions: cited from earlier work

Row | Molecule | effect on hospitalized patients with Covid-19 [1] | inhibition of certain SARS CoV-2 assays (SARS CoV-2) | further results
1 | CCN(CCO)CCCC(C)Nc1ccnc2cc(Cl)ccc12 (centres unmarked) [hydroxychloroquine] | little or no effect |  | 
2 | Cc1cccc(C)c1OCC(=O)N[C@@H](Cc1ccccc1)[C@@H](O)C[C@H](Cc1ccccc1)NC(=O)[C@H](C(C)C)N1CCCNC1=O [lopinavir] | little or no effect |  | 
3 | heparin sodium [sodium heparin] |  | inhibited | 
4 | ivermectin |  |  | effect on the duration of symptoms [2]: not have a significant effect
5 | lithium heparin |  | inhibited | 

Reference: patent US20230210890A1, “COMPOSITIONS AND METHODS OF TREATING COVID-19 WITH HEPARIN OR OTHER NEGATIVELY CHARGED MOLECULES” (Siemens Healthcare Diagnostics Inc., priority 2020, published 2023)
